From PMC11062575 (Science Advances, 2024)
Where a chain is given by its changes, count along the chain named.

Assays:
wild-type human TRPV3 = molecular target: T1, wild-type human TRPV3 (Homo sapiens, UniProt Q8NET8); test: Fura-2AM ratiometric Ca2+ uptake measurements, wild-type TRPV3; format: cell-based
T1 sequence (Q8NET8 1-791 isoform Q8NET8-2): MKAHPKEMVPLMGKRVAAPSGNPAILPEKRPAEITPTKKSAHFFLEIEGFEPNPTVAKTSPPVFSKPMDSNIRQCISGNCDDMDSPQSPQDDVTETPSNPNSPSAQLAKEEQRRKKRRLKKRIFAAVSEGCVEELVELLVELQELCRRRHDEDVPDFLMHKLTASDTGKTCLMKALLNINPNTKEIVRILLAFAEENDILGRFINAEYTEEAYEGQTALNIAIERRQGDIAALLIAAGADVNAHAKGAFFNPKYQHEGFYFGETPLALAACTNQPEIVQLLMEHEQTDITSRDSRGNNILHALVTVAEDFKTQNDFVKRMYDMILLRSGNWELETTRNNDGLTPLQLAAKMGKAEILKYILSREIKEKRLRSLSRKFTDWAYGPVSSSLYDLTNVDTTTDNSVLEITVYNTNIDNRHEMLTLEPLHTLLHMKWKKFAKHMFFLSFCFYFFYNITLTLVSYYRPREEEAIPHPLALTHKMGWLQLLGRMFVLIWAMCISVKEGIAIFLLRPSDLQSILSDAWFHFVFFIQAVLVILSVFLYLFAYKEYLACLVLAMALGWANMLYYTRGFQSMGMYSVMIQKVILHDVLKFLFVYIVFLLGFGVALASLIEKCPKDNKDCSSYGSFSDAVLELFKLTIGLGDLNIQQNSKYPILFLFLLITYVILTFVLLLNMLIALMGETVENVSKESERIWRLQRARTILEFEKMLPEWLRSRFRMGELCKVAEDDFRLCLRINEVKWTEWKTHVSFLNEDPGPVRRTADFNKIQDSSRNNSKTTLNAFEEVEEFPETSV

human TRPV3 L557A mutant = molecular target: T2, human TRPV3 L557A mutant (Homo sapiens, UniProt Q8NET8, L557A); test: Fura-2AM Ca2+ uptake measurements, L557A mutant; format: cell-based
T2 sequence (Q8NET8 1-791 isoform Q8NET8-2 L557A): T1 sequence (Q8NET8 1-791 isoform Q8NET8-2) with L557A

mouse TRPV3 Y564A = mouse TRPV3 Y564A vs wild type; cited from earlier work
human TRPV3 C496A mutant = human TRPV3 C496A mutant (Homo sapiens, UniProt Q8NET8, C496A); conditions: C496A vs wild type
Sequence of human TRPV3 C496A mutant (Q8NET8 1-791 isoform Q8NET8-2 C496A): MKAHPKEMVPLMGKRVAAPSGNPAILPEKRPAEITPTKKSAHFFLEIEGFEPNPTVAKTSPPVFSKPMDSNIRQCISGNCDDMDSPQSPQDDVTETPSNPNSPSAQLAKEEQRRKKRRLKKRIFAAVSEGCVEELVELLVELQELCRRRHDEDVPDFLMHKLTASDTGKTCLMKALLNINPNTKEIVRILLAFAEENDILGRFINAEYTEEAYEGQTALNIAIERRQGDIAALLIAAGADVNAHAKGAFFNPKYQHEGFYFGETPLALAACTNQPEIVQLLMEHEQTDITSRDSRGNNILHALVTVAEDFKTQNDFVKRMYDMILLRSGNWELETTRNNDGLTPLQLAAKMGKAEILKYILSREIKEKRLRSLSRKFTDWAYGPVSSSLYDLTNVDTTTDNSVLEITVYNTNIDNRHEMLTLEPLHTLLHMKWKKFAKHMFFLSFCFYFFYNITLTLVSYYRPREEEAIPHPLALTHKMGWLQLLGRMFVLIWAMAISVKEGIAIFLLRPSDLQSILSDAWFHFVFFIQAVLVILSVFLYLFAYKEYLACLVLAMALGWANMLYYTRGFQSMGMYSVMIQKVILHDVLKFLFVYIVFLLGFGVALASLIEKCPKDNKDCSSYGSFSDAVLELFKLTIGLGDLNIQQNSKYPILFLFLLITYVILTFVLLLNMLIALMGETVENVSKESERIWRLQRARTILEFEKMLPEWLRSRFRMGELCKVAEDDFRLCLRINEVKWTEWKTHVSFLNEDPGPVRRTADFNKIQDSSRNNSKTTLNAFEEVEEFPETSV

Row | Structure (SMILES) | EC50 (wild-type human TRPV3) | maximum absolute value of the fluorescence intensity ratio (F340/F380) (wild-type human TRPV3; wild type, n = 3) | EC50 (human TRPV3 L557A mutant) | maximum absolute value of the fluorescence intensity ratio (F340/F380) (human TRPV3 L557A mutant; L557A, n = 3, P = 0.61 vs wild type) | increase in 2-APB potency on Y564 substitution with alanine (mouse TRPV3 Y564A) | activating potency enhanced compared to wild-type TRPV3 (human TRPV3 C496A mutant)
1 | CCCc1cc(O)c2c(c1)OC(C)(C)[C@@H]1CCC(C)=C[C@@H]21 [THCV, tetrahydrocannabivarin] | 6.1 ± 0.5 µM | 5.29 ± 0.04 | 0.081 ± 0.001 µM | 5.58 ± 0.47 | – | –
2 | NCCOB(c1ccccc1)c1ccccc1 [2-APB, 2-aminoethoxydiphenylborane] | – | – | – | – | 20 fold | ~ 3 fold
